According to paper PMC7219108, “Pisum sativum Defensin 1 Eradicates Mouse Metastatic Lung Nodules from B16F10 Melanoma Cells” (International Journal of Molecular Sciences, 2020):

Key:
[1] = system: B16F10 (murine skin melanoma) cells; experiment: MTT cell viability, B16F10 tumor cells; format: cell-based; conditions: 24 h, two independent experiments in triplicate, p < 0.001 vs untreated
[2] = system: Beas-2B (bronchial human respiratory epithelial) cells; experiment: MTT cell viability, healthy Beas-2B cells; format: cell-based; conditions: 3.125-50 µM, 24, 48 and 72 h
[3] = system: HSP-2 (human hepatocyte) cells; experiment: Cell viability, healthy HSP-2 cells; format: cell-based; conditions: 6 and 30 µM, 3 h
[4] = system: B16F10 cells; experiment: Mitochondrial staining (MitoTracker Red CMXRos), B16F10 cells; format: cell-based, murine; conditions: 50 µM
Procedure: Figure 2 Psd1 promotes B16F10 live cell membrane permeabilization as monitored by SYTOX Green fluorescence. (A) Psd1 untreated and hydrogen peroxide-treated B16F10 cells. (B) A total of 1.5 × 10^4 B16F10 cells were incubated with 3 or 50 µM Psd1 for 30 min. (C) 1.5 × 10^4 B16F10 cells were incubated with 50 µM Psd1 for 1 h. All experiments were performed at 37 °C. Nucleus staining is shown in green (SYTOXGreen), and mitochondria are shown in red (MitoTracker Red CMXRos). Images are shown at 20× magnification. […] (E) Psd1 induces apoptosis in B16F10 cells. B16F10 cells were treated with 50 µM Psd1 for 24 h and labeled with propidium iodide, and the DNA content was analyzed by flow cytometry for the sub-G0/G1 profile. […]
Figure 3 Fluorescein isothiocyanate (FITC)-Psd1 was localized in the B16F10 live cell nucleus. […] (C) The mean fluorescence intensity (MIF) of MitoTracker and FITC-Psd1 labeled cells measured over time. […]
Images were obtained in the X, Y, and Z planes of the image, giving the image a 3-dimensional depth (Z-stack) at 100× magnification with a Zeiss Cell Observer Yokogawa Spinning Disk confocal microscope (Cell Observed SD, Carl-Zeiss, Oberkochen, Germany) located in the Microscopia Óptica de Luz Gustavo de Oliveira Castro (Plamol) platform in Universidade Federal do Rio de Janeiro. […] On average, thirty cells per field were analyzed in fourteen fields by experiments. […]

[5] = system: recombinant cyclin F-GST; experiment: Surface plasmon resonance, Psd1-cyclin F interaction; format: binding
Procedure: Surface plasmon resonance (SPR) assays were run on a Biacore X (GE Healthcare Life Sciences, Amersham, UK) apparatus in real time using a CM5 sensor chip at 25 °C. Briefly, CM5 chip activation was performed by injection of 100 µL of a 1:1 mixture of amine coupling kit (750 mg 1-ethyl-3-(3-dimethylaminopropyl) carbodiimide hydrochloride (EDC), 115 mg N-hydroxysuccinimide (NHS), 2 × 10.5 mL 1.0 M ethanolamine-HCl pH 8.5) with a continuous flow of 2 µL/min. Then, 100 µL of […] recombinant cyclin F-GST diluted in 10 mM sodium acetate pH 4.0 buffer was immobilized by amine coupling onto the carboxylate dextran layer of CM5 with the same flow. This was injected with 80 µL of 1 M ethanolamine pH 8.0 to block the remaining binding free sites of the protein. To evaluate the interaction of Psd1 with the cyclin F protein, increasing concentrations of the peptide (10–240 µM) in 100 µL of running buffer (10 mM HEPES, 150 mM NaCl, pH 7.4) were injected using a flow rate of 15 µL/min for 4 min. After the injection ended, the dissociation phase was measured in not less than 300 s. The Psd1-GST-cyclin F interaction curves were subtracted from the respective curves obtained for Psd1-GST to discount possible artifact interactions with GST alone. […]

[6] = system: fungal mutants lacking glucosylceramide synthase; conditions: cited from earlier work

Substance: Psd1: 46-amino acid residue plant defensin isolated from pea seeds, expressed in Pichia pastoris (PDB 1JKZ) (KTCEHLADTYRGVCFTNASCDDHCKNKAHLISGTCHNWKCFCTQNC)
- Reduction of B16F10 cell viability (MTT) ([1]; 25 µM): approximately 50%
- Reduction of B16F10 cell viability (MTT) ([1]; 50 µM): ~60%
- Beas-2B cell viability (MTT) [2]: no alteration in cell viability was observed even after 72 h of exposure
- HSP-2 cell viability [3]: no alteration in cell viability
- Mitochondria red marker (MitoTracker) ([4]; 30 min): lower mitochondria red marker
- Mitochondria red fluorescence (MitoTracker) ([4]; 1 h, probably superposition of SYTOXGreen and MitoTracker signals): brighter red fluorescence signal
- SPR association phase, onset of response ([5]; after Psd1 injection, 15 µL/min, 4 min): 80 s
- SPR dissociation phase ([5]; after injection ended): full dissociation phase was observed
- Resistance of mutants to Psd1 antifungal activity and permeabilization [6]: partially resistant
